Source: patent publication US20240049707A1, “PESTICIDE COMPOSITIONS OF LICOCHALCONE C” (METABOLIC INSIGHTS LTD., priority 2020, published 2024)

System: Pythium aphanidermatum
Assay: In-vivo validation under greenhouse conditions in cucumber seedlings infected with Pythium aphanidermatum
Conditions: preventative treatment 24 h before inoculation; 2 types of formulations; 100 to 400 ppm; evaluated 7 days after inoculation
Description: FIGS. 1-8 show the effect of Licochalcone C (LIC) on cucumber seedlings survival in 8 independent experiments determined as percentage of disease severity 7 days following inoculation with Pythium aphanidermatum. FIGS. 9-11 show effect of Licochalcone C (LIC) on cucumber seedlings survival in 3 independent experiments determined as of disease severity 7 days following inoculation with Rhizoctonia solani. * means that p-value <0.05, ** means that p-value is <0.01, # means that p-value <0.1, n.s. means non-significant difference vs. non-treated plants. For formulation description used for Licochalcone C see Example 7.
To evaluate the effect of a Licochalcone C in infected plants compared to control plants (infected but not treated) the data was analysed by Student's t-test and the p-value is calculated. The minimum number of repeats in each experiment was 3. Results were considered significant if p<0.05. The data presented as mean with standard error mean from biological replicates. * means that p-value <0.05, ** means that p-value is <0.01, # means that p-value <0.1. […]
General description: Pythium aphanidermatum disease severity development was evaluated following preventative treatment by Licochalcone C (LIC) […]

Structure (SMILES): COc1c(/C=C/C(=O)c2ccc(O)cc2)ccc(O)c1CC=C(C)C [Licochalcone C, (E)-3-[4-hydroxy-2-methoxy-3-(3-methylbut-2-enyl)phenyl]-1-(4-hydroxyphenyl)prop-2-en-1-one]
- efficacy in preventing Pythium disease in cucumber seedling: up to 100%
